Experimental data taken from PubChem BioAssay AID2742 (NMMLSC, 2010).
Activity calls are given as the source filed them.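 The calls were made as follows: active = fitted half-maximal concentration for changing background-corrected GFP signal at or below a set limit; inactive = the rest.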

Assay: TOR pathway reporter MEP2-GFP, concentration series – S. cerevisiae, flow cytometry GFP, MLPCN hits, dose response (AID 2742);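 also: GFP tag reports level of MEP2 protein as a downstream target of TOR signalling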
Settings: S. cerevisiae MEP2-GFP strain, flow cytometry fluorescence, 3 h; at 33 µM (top of the series)

Question: Which GFP fluorescence (kMESF), higher = increase does the source give for CCn1c(=O)c(C(C)=O)c(O)c2ccccc21 here?
Answer: Its GFP fluorescence (kMESF), higher = increase is 3.81 kMESF (inactive).

Question: For Cc1ccc(/C(N)=N/OC(=O)c2ccc(F)cc2)cc1, which GFP fluorescence (kMESF), higher = increase is on record?
Answer: Its GFP fluorescence (kMESF), higher = increase is 2.2 kMESF (inactive).

Question: Which GFP fluorescence (kMESF), higher = increase does the source give for CCN(CC)c1ccc(/C=C2/C(=O)c3ccc(C(=O)O)cc3C2=O)cc1 here?
Answer: The GFP fluorescence (kMESF), higher = increase was 3.08 kMESF (inactive).

Question: Which GFP fluorescence (kMESF), higher = increase does the source give for O=C(NNC(=S)NC(=O)c1ccco1)c1ccc(F)cc1 here?
Answer: The GFP fluorescence (kMESF), higher = increase was 4.11 kMESF (inactive).

Question: With Cc1cc(C)c(OCC(=O)Nc2nc(-c3ccccn3)cs2)c(C)c1 as the molecule, how does the GFP fluorescence (kMESF), higher = increase read?
Answer: The GFP fluorescence (kMESF), higher = increase was 2.37 kMESF (inactive).

Question: For CCOc1ccc(C(C)=O)cc1N1C(=O)C2C3C=CC(O3)C2C1=O (stereo unspecified), which GFP fluorescence (kMESF), higher = increase is on record?
Answer: The GFP fluorescence (kMESF), higher = increase was 3.31 kMESF (inactive).

Question: With Cc1ccc2nc(Cl)c3nnnn3c2c1 as the molecule, how does the GFP fluorescence (kMESF), higher = increase read?
Answer: Its GFP fluorescence (kMESF), higher = increase is 4.36 kMESF (inactive).

Question: With Nc1ccccc1C#CC(=O)c1ccccc1 as the molecule, how does the GFP fluorescence (kMESF), higher = increase read?
Answer: Its GFP fluorescence (kMESF), higher = increase is 6.68 kMESF (inactive).

Question: For COc1ccc(N2C(=O)/C(=C/c3cccs3)C(=O)NC2=S)cc1, which GFP fluorescence (kMESF), higher = increase is on record?
Answer: Its GFP fluorescence (kMESF), higher = increase is 4.01 kMESF (inactive).

Question: For CC1=CC(=O)C(C(C)C)=C/C1=N/OS(=O)(=O)c1ccccc1, which GFP fluorescence (kMESF), higher = increase is on record?
Answer: The GFP fluorescence (kMESF), higher = increase was 3.47 kMESF (inactive).

Question: For O=C(Nc1nc2ccc(F)cc2s1)c1ccccn1, which GFP fluorescence (kMESF), higher = increase is on record?
Answer: The GFP fluorescence (kMESF), higher = increase was 3.71 kMESF (inactive).

Question: Which GFP fluorescence (kMESF), higher = increase does the source give for N/C(=N\OC(=O)c1ccc(Cl)cc1Cl)c1ccccc1 here?
Answer: Its GFP fluorescence (kMESF), higher = increase is 3.21 kMESF (inactive).

Question: For Oc1cc(-c2ccc(N3CCCCC3)nc2)cc2cccnc12, which GFP fluorescence (kMESF), higher = increase is on record?
Answer: The GFP fluorescence (kMESF), higher = increase was 3.04 kMESF (inactive).

Question: With CCOC(=O)/C(=C\c1cn(C)c2ccccc12)[N+](=O)[O-] as the molecule, how does the GFP fluorescence (kMESF), higher = increase read?
Answer: The GFP fluorescence (kMESF), higher = increase was 6.34 kMESF (inactive).

Question: Which GFP fluorescence (kMESF), higher = increase does the source give for Oc1c(Br)cc(Br)cc1C=Nc1ccc2c(c1)OCO2 here?
Answer: The GFP fluorescence (kMESF), higher = increase was 5.35 kMESF (inactive).

Question: For O=C(/C=C/c1ccccc1[N+](=O)[O-])c1ccccc1Br, which GFP fluorescence (kMESF), higher = increase is on record?
Answer: The GFP fluorescence (kMESF), higher = increase was 62.3 kMESF (inactive).

Question: Which GFP fluorescence (kMESF), higher = increase does the source give for CCN(CC(=O)Nc1cc(S(=O)(=O)N2CCOCC2)ccc1Cl)Cc1ccccc1 here?
Answer: The GFP fluorescence (kMESF), higher = increase was 2.25 kMESF (inactive).

Question: With COc1cccc2sc(Nc3nc(-c4ccccn4)cs3)nc12 as the molecule, how does the GFP fluorescence (kMESF), higher = increase read?
Answer: The GFP fluorescence (kMESF), higher = increase was 5.3 kMESF (inactive).

Question: For N/C(=N\OC(=O)c1cc(Br)ccc1Cl)c1ccccn1, which GFP fluorescence (kMESF), higher = increase is on record?
Answer: The GFP fluorescence (kMESF), higher = increase was 5.31 kMESF (inactive).

Question: With COc1ccccc1N=Nc1ccc(O)c2ncccc12 as the molecule, how does the GFP fluorescence (kMESF), higher = increase read?
Answer: The GFP fluorescence (kMESF), higher = increase was 5.16 kMESF (inactive).

Question: With O=C(COc1ccc(F)cc1Cl)Nc1nc(-c2ccccn2)cs1 as the molecule, how does the GFP fluorescence (kMESF), higher = increase read?
Answer: The GFP fluorescence (kMESF), higher = increase was 4.88 kMESF (inactive).

Question: Which GFP fluorescence (kMESF), higher = increase does the source give for CCc1sc(C(=O)Nc2nc(-c3ccccn3)cs2)cc1C here?
Answer: Its GFP fluorescence (kMESF), higher = increase is 5.26 kMESF (inactive).

Question: With CCn1c(=O)c(C(=O)Nc2nc3ccccc3[nH]2)c(O)c2ccccc21 as the molecule, how does the GFP fluorescence (kMESF), higher = increase read?
Answer: Its GFP fluorescence (kMESF), higher = increase is 2.38 kMESF (inactive).

Question: With Cc1ccc(O)c(N=Nc2nccs2)c1 as the molecule, how does the GFP fluorescence (kMESF), higher = increase read?
Answer: The GFP fluorescence (kMESF), higher = increase was 2.87 kMESF (inactive).

Question: For Cc1cccc(C)c1NC(=O)C(Cl)C(=O)c1ccccc1 (stereo unspecified), which GFP fluorescence (kMESF), higher = increase is on record?
Answer: Its GFP fluorescence (kMESF), higher = increase is 4.47 kMESF (inactive).

Question: With O=C1C=CC(=O)N1c1ccc(OC(F)F)cc1 as the molecule, how does the GFP fluorescence (kMESF), higher = increase read?
Answer: Its GFP fluorescence (kMESF), higher = increase is 3.81 kMESF (inactive).

Question: Which GFP fluorescence (kMESF), higher = increase does the source give for CCCCC1OC23CCCCC2C(C#N)(C(=N)O3)C1(C#N)C#N (stereo unspecified) here?
Answer: Its GFP fluorescence (kMESF), higher = increase is 3.37 kMESF (inactive).

Question: For O=C1C(Cl)=C(Nc2ccccc2O)C(=O)N1c1ccccc1, which GFP fluorescence (kMESF), higher = increase is on record?
Answer: The GFP fluorescence (kMESF), higher = increase was 4.11 kMESF (inactive).

Question: For C#CCOCCOCCOCCNc1nc(N2CCN(C(=O)CCCCCCCCCCNC(=O)[C@H](CCCCN)n3cc(C)nn3)CC2)nc(N2CCN(C(=O)CCCCCCCCCCNC(=O)[C@H](CCCN=C(N)N)n3cc(C[C@@H](C)CC)nn3)CC2)n1, which GFP fluorescence (kMESF), higher = increase is on record?
Answer: The GFP fluorescence (kMESF), higher = increase was 3.34 kMESF (inactive).

Question: With CC(C)C(=O)NC(c1cccs1)c1cc([N+](=O)[O-])c2cccnc2c1O (stereo unspecified) as the molecule, how does the GFP fluorescence (kMESF), higher = increase read?
Answer: The GFP fluorescence (kMESF), higher = increase was 3.41 kMESF (inactive).

Question: For N=C1/C(=C\c2coc3ccccc3c2=O)C(=O)N=C2SC(c3ccncc3)=NN12, which GFP fluorescence (kMESF), higher = increase is on record?
Answer: Its GFP fluorescence (kMESF), higher = increase is -3.13 kMESF (inactive).
